ChEMBL document CHEMBL5518236, “Discovery of Clinical Candidate AZD5462, a Selective Oral Allosteric RXFP1 Agonist for Treatment of Heart Failure” (J Med Chem, 2024)
Activity calls are given as the source filed them. No cut-off for these calls is given here.

Key:
[1] = Metabolic stability in human liver microsomes assessed as unbound intrinsic clearance at 1 uM measured upto 30 mins by LC-MS/MS analysis; format: ADME, Microsome; details: 0.5 h
[2] = Metabolic stability in human liver microsomes assessed as intrinsic clearance at 1 uM measured upto 30 mins by LC-MS/MS analysis; format: ADME, Microsome; details: read-out: CLH
[3] = Metabolic stability in human hepatocytes assessed as intrinsic clearance measured per 10^6 viable cells/ml at 1 uM measured upto 120 mins by LC-MS/MS analysis; format: ADME, cell-based, Hepatocyte; details: read-out: CLH
[4] = Apparent permeability across apical to basolateral side in human Caco-2 cells at pH 7.4 by LC-MS/MS analysis; format: ADME, cell-based; details: Caco-2, pH 7.4
[5] = Metabolic stability in human hepatocytes assessed as unbound intrinsic clearance measured per 10^6 viable cells/ml at 1 uM measured upto 120 mins by LC-MS/MS analysis; format: ADME, cell-based, Hepatocyte; details: 2 h
[6] = Octanol/water partition coefficient, logD of the compound at pH 7.4 by shake flask method; format: physicochemical
[7] = target: T1, Relaxin receptor 1 (Homo sapiens, UniProt Q9HBX9)
T1 sequence (Q9HBX9 whole entry): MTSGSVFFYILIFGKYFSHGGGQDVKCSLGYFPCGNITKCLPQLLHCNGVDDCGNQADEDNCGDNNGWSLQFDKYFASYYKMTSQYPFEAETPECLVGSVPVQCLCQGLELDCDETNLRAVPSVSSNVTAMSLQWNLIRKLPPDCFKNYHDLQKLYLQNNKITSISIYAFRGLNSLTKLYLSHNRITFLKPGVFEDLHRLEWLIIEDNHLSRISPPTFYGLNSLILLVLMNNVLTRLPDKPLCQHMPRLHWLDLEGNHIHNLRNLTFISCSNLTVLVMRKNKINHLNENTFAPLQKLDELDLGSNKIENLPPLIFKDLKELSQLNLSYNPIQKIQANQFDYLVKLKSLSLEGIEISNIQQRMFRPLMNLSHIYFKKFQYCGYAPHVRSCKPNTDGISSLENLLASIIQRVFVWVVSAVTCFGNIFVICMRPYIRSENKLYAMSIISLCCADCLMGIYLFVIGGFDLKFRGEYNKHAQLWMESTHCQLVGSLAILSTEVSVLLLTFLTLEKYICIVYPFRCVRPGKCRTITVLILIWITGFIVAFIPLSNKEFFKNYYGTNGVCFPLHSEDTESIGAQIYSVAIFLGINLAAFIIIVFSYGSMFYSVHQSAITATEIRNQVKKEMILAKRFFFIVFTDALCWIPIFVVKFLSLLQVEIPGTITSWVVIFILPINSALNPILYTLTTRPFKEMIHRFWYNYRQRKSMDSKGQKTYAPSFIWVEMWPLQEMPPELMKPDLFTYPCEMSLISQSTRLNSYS
Description: Agonist activity at human RXFP1 expressed in CHO cells assessed as increase in cAMP level measured after 2 hrs by HTRF cAMP assay

[8] = Protein binding in human plasma assessed as fraction unbound at 5 uM measured after 18 hrs by LC-MS/MS analysis; format: ADME, cell-free; details: read-out: PPB
[9] = Protein binding in rat plasma assessed as fraction unbound at 5 uM measured after 18 hrs by LC-MS/MS analysis; format: ADME, cell-free; details: read-out: PPB
[10] = target: T2, Relaxin receptor 1 (Homo sapiens) (UniProt Q9HBX9); details: CHO-K1, time 15.0 min
T2 sequence (whole entry): T1 sequence (Q9HBX9 whole entry)

Row | Compound | CL free [1] | microsomal CLint at 1 µM [2] | hepatocyte CLint at 1 µM [3] | Papp A→B [4] | CL free [5] | logD [6] | EC50 [7] | fraction unbound at 18 h, 5 µM [8] | fraction unbound at 18 h, 5 µM [9] | pEC50 [10]
1 | COc1cc(F)c(O[C@H]2CC[C@](C(=O)O)(C(F)(F)F)CC2)cc1C(=O)N[C@@H]1[C@H]2CC[C@H](C2)[C@@H]1C(=O)NCC1(C)CCC1 | < 5.5 µL/min/mg | < 3 µL/min/mg | 3.9 µL/min/1e6 cells | 35 ×10⁻⁶ cm/s | 8.8 µL/min | 2.1 |  |  |  | 
2 | CC1(CNC(=O)[C@H]2C3CCC(C3)[C@H]2NC(=O)c2cc(O[C@H]3CC[C@@](C)(C(=O)O)CC3)c(C#N)cc2F)CCC1 (stereo not given in full) | 27 µL/min/mg | 14 µL/min/mg | 7.9 µL/min/1e6 cells |  | 16 µL/min | 3.3 | 0.0158 µM |  |  | 
3 | CC1(CNC(=O)[C@H]2[C@@H]3CC[C@@H](C3)[C@H]2NC(=O)c2cc(O[C@H]3CC[C@@](C)(C(=O)O)CC3)c(F)cc2OCF)CCC1 | 62 µL/min/mg | 36 µL/min/mg | 8.4 µL/min/1e6 cells |  | 15 µL/min | 3.3 | 0.00631 µM |  |  | 
4 | COc1cc(C(F)(F)F)c(O[C@H]2CC[C@@](C)(C(=O)O)CC2)cc1C(=O)N[C@@H]1[C@H]2CC[C@H](C2)[C@@H]1C(=O)NCC1(C)CCC1 | 44 µL/min/mg | 20 µL/min/mg | 3.9 µL/min/1e6 cells |  | 93 µL/min | 4.1 | 0.0316 µM |  |  | 
5 | COc1ccc(O[C@H]2CC[C@@](C)(C(=O)O)CC2)cc1C(=O)N[C@@H]1[C@H]2CC[C@H](C2)[C@@H]1C(=O)NCC1(C)CCC1 | 46 µL/min/mg | 36 µL/min/mg | 6.1 µL/min/1e6 cells |  | 10 µL/min | 2.9 | 0.1 µM |  |  | 
6 | COc1c(C#N)cc(O[C@H]2CC[C@@](C)(C(=O)O)CC2)cc1C(=O)N[C@@H]1[C@H]2CC[C@H](C2)[C@@H]1C(=O)NCC1(C)CCC1 | 69 µL/min/mg | 50 µL/min/mg | 11 µL/min/1e6 cells |  | 16 µL/min | 2.9 | 0.0794 µM |  |  | 
7 | COc1cc(F)c(O[C@H]2CC[C@@](CO)(C(=O)O)CC2)cc1C(=O)N[C@@H]1[C@H]2CC[C@H](C2)[C@@H]1C(=O)NCC1(C)CCC1 | < 6.2 µL/min/mg | < 5.1 µL/min/mg | 6.2 µL/min/1e6 cells | 3.1 ×10⁻⁶ cm/s | 11 µL/min | 1.5 |  |  |  | 
8 | CC1(CNC(=O)[C@H]2[C@@H]3CC[C@@H](C3)[C@H]2NC(=O)c2cc(O[C@H]3CC[C@@](C)(C(=O)O)CC3)ccn2)CCC1 | 35 µL/min/mg | 29 µL/min/mg | 2.3 µL/min/1e6 cells |  | 3.3 µL/min | 2.5 | 1.58 µM |  |  | 
9 | Cc1cc(F)c(O[C@H]2CC[C@@](C)(C(=O)O)CC2)cc1C(=O)N[C@@H]1[C@H]2CC[C@H](C2)[C@@H]1C(=O)NCC1(C)CCC1 | 23 µL/min/mg | 161 µL/min/mg | 15 µL/min/1e6 cells |  | 22 µL/min | 2.83 | 2 µM |  |  | 
10 | CC1(CNC(=O)[C@H]2[C@@H]3CC[C@@H](C3)[C@H]2NC(=O)c2ccc(F)c(O[C@H]3CC[C@@](C)(C(=O)O)CC3)c2)CCC1 | 8.8 µL/min/mg | 6.6 µL/min/mg | 8.4 µL/min/1e6 cells |  | 16 µL/min | 3 | 0.316 µM |  |  | 
11 | CC1(CNC(=O)[C@H]2[C@@H]3CC[C@@H](C3)[C@H]2NC(=O)c2cc(O[C@H]3CC[C@@](C)(C(=O)O)CC3)c(C#N)cn2)CCC1 | 20 µL/min/mg | 17 µL/min/mg | 3.1 µL/min/1e6 cells |  | 4.2 µL/min | 2.4 | 0.1 µM |  |  | 
12 | CC(C)Oc1ccccc1C(=O)Nc1ccccc1C(=O)Nc1cccc(S(=O)(=O)C(F)(F)F)c1 |  |  |  |  | 3.07 10^3uL/min | > 4 |  | < 0.0002 | < 0.0002 | inactive
13 | CC1(CNC(=O)[C@H]2[C@@H]3CC[C@@H](C3)[C@H]2N2CCc3cc(F)c(O[C@H]4CC[C@@](C)(C(=O)O)CC4)cc3C2=O)CCC1 | 70 µL/min/mg | 44 µL/min/mg | 2.1 µL/min/1e6 cells |  | 3 µL/min |  | 1.58 µM |  |  | 
14 | COc1cc(F)c(O[C@H]2CC[C@@](C)(C(=O)O)CC2)cc1C(=O)N[C@@H]1[C@H]2CC[C@H](C2)[C@@H]1C(=O)NCC(C)C | 7.6 µL/min/mg | 5.7 µL/min/mg | < 1 µL/min/1e6 cells |  | < 1.4 µL/min | 2.6 |  |  |  | 
15 | COc1cc(F)c(O[C@H]2CC[C@@](C)(C(=O)O)CC2)cc1C(=O)N[C@@H]1[C@H]2CC[C@H](C2)[C@@H]1C(=O)N[C@H](C)C(C)(C)C | 50 µL/min/mg | 33 µL/min/mg | 5.9 µL/min/1e6 cells |  | 11 µL/min | 3.4 |  |  |  | 
16 | COc1cc(F)c(O[C@H]2CC[C@@](C)(C(=O)O)CC2)cc1C(=O)N[C@@H]1[C@H]2CC[C@H](C2)[C@@H]1C(=O)NCC(C)(C)C(F)(F)F | 23 µL/min/mg | 13 µL/min/mg | 4.2 µL/min/1e6 cells | 66 ×10⁻⁶ cm/s | 8.6 µL/min | 3.19 |  |  |  | 
17 | COc1cc(F)c(O[C@H]2CC[C@@](C)(c3n[nH]c(=O)o3)CC2)cc1C(=O)N[C@@H]1[C@H]2CC[C@H](C2)[C@@H]1C(=O)NCC1(C)CCC1 | 2.8 10^3uL/min/mg | > 300 µL/min/mg | 73 µL/min/1e6 cells |  | 562 µL/min | 5.4 |  |  |  | 
18 | COc1cc(F)c(O[C@H]2CC[C@@](CC#N)(C(=O)O)CC2)cc1C(=O)N[C@@H]1[C@H]2CC[C@H](C2)[C@@H]1C(=O)NCC1(C)CCC1 | 18 µL/min/mg | 13 µL/min/mg | 10 µL/min/1e6 cells |  | 15 µL/min | 1.4 | 0.0794 µM |  |  | 
19 | COc1cc(C(F)F)c(O[C@H]2CC[C@@](C)(C(=O)O)CC2)cc1C(=O)N[C@@H]1[C@H]2CC[C@H](C2)[C@@H]1C(=O)NCC1(C)CCC1 | 39 µL/min/mg | 23 µL/min/mg | 5.1 µL/min/1e6 cells |  | 11 µL/min | 3.8 |  |  |  | 
20 | COCc1cc(OC)c(C(=O)N[C@@H]2[C@H]3CC[C@H](C3)[C@@H]2C(=O)NCC2(C)CCC2)cc1O[C@H]1CC[C@@](C)(C(=O)O)CC1 | 15 µL/min/mg | 11 µL/min/mg | 3.2 µL/min/1e6 cells |  | 44 µL/min | 3 | 1 µM |  |  | 
21 | COc1cc(F)c(C[C@H]2CC[C@@](C)(C(=O)O)CC2)cc1C(=O)N[C@@H]1[C@H]2CC[C@H](C2)[C@@H]1C(=O)NCC1(C)CCC1 | 269 µL/min/mg | 78 µL/min/mg | 9.8 µL/min/1e6 cells |  | 43 µL/min | 4.3 | 0.158 µM |  |  | 
22 | CC1(CNC(=O)[C@H]2[C@@H]3CC[C@@H](C3)[C@H]2NC(=O)c2cc(O[C@H]3CC[C@@](C)(C(=O)O)CC3)c(F)cc2OC(F)F)CCC1 | 59 µL/min/mg | 34 µL/min/mg | 26 µL/min/1e6 cells |  | 52 µL/min | 3.3 |  |  |  | 
23 | COc1cc(F)c(O[C@H]2CC[C@@](C)(c3noc(=O)[nH]3)CC2)cc1C(=O)N[C@@H]1[C@H]2CC[C@H](C2)[C@@H]1C(=O)NCC1(C)CCC1 | 212 µL/min/mg | 87 µL/min/mg | 12 µL/min/1e6 cells |  |  | 3.8 | 0.0794 µM |  |  | 
24 | COc1cc(S(C)(=O)=O)c(O[C@H]2CC[C@@](C)(C(=O)O)CC2)cc1C(=O)N[C@@H]1[C@H]2CC[C@H](C2)[C@@H]1C(=O)NCC1(C)CCC1 | 14 µL/min/mg | 11 µL/min/mg | 1.2 µL/min/1e6 cells |  | 1.7 µL/min | 1.9 |  |  |  | 
25 | CC1(CNC(=O)[C@H]2[C@@H]3CC[C@@H](C3)[C@H]2NC(=O)c2cc(O[C@H]3CC[C@@](C)(C(=O)O)CC3)cc3c2OCC3)CCC1 | 30 µL/min/mg | 25 µL/min/mg | 3.3 µL/min/1e6 cells |  | 5.1 µL/min | 2.9 |  |  |  | 
